Structures are written as SMILES.

This assay addresses human O-GlcNAc-β-N-acetylglucosaminidase (OGA) (Homo sapiens (Human), UniProt O60502). Put plainly: In Vitro Human OGA Enzyme Assay. The format is biochemical. To be noted: full-length His-tagged human OGA; FD-GlcNAc substrate 6.7 μM; 30 min pre-incubation, 60 min reaction, pH 7. The protocol:
The nucleotide sequence encoding full-length human O-GlcNAc-β-N-acetylglucosaminidase (NM_012215) is inserted into pFastBacl (Invitrogen) vector with an N-terminal poly-histidine (HIS) tag. Baculovirus generation is carried out according to the Bac-to-Bac Baculovirus Expression system (Invitrogen) protocol. Sf9 cells are infected at 1.5×10^6 cells/mL using 10 mL of P1 virus per Liter of culture and incubated at 28° C. for 48 hrs. Cells are spun down, rinsed with PBS and the pellets stored at −80° C. The above OGA protein (His-OGA) is purified as follows: 4 L of cells are lysed in 200 mL of buffer containing 50 mM Tris, pH 8.0, 300 mM NaCl, 10% glycerol, 10 mM imidazole, 1 mM dithiothreitol (DTT), 0.1% Triton™ X-100, 4 tablets of protease inhibitors (complete EDTA-Free, Roche) for 45 min at 4° C. This cell lysate is then spun for 40 min at 16500 rpm at 4° C., and supernatant incubated with 6 mL of Ni-NTA resin (nickel-nitrilotriacetic acid) for 2 hours at 4° C.
Resin is then packed onto column and washed with 50 mM Tris, pH 8.0, 300 mM NaCl, 10% glycerol, 10 mM imidazole, 0.1% Triton™ X-100, 1 mM DTT, followed by 50 mM Tris, pH 8.0, 150 mM NaCl, 10 mM imidazole, 10% glycerol, 1 mM DTT. The proteins are eluted with 50 mM Tris, pH 8.0, 150 mM NaCl, 300 mM imidazole, 10% glycerol, 1 mM DTT. Pooled His-OGA containing fractions are concentrated to 6 ml and loaded onto Superdex75 (16/60). The protein is eluted with 50 mM Tris, pH 8.0, 150 mM NaCl, 10% glycerol, 2 mM DTT. Fractions containing His-OGA are pooled and protein concentration measured with BCA ([…]).
The OGA enzyme catalyses the removal of O-GlcNAc from nucleocytoplasmic proteins. To measure this activity Fluorescein di-N-acetyl-β-N-acetyl-D-glucosaminide (FD-GlcNAc, Kim, Eun Ju; Kang, Dae Ook; Love, Dona C.; Hanover, John A. Carbohydrate Research (2006), 341(8), 971-982) is used as a substrate at a final concentration of 6.7 μM (in a 384 well assay format). This fluorogenic substrate becomes fluorescent upon cleavage by OGA, so that the enzyme activity can be measured by the increase in fluorescence detected at 535 nm (excitation at 485 nm).
The assay buffer is prepared to give a final concentration of 50 mM […], 0.01% bovine serum albumin and 0.01% Triton™ X-100 in water, at pH 7. Compounds to be tested are diluted in pure dimethyl sulfoxide (DMSO) using ten point concentration response curves. Maximal compound concentration in the reaction mixture is 30 or 1 μM. […] Then, without stopping the reaction, fluorescence is read. IC50 values are calculated by plotting the normalized data vs. log of the compound and fitting the data using a four parameter logistic equation.

Chain of human O-GlcNAc-β-N-acetylglucosaminidase (OGA) (O60502 whole entry): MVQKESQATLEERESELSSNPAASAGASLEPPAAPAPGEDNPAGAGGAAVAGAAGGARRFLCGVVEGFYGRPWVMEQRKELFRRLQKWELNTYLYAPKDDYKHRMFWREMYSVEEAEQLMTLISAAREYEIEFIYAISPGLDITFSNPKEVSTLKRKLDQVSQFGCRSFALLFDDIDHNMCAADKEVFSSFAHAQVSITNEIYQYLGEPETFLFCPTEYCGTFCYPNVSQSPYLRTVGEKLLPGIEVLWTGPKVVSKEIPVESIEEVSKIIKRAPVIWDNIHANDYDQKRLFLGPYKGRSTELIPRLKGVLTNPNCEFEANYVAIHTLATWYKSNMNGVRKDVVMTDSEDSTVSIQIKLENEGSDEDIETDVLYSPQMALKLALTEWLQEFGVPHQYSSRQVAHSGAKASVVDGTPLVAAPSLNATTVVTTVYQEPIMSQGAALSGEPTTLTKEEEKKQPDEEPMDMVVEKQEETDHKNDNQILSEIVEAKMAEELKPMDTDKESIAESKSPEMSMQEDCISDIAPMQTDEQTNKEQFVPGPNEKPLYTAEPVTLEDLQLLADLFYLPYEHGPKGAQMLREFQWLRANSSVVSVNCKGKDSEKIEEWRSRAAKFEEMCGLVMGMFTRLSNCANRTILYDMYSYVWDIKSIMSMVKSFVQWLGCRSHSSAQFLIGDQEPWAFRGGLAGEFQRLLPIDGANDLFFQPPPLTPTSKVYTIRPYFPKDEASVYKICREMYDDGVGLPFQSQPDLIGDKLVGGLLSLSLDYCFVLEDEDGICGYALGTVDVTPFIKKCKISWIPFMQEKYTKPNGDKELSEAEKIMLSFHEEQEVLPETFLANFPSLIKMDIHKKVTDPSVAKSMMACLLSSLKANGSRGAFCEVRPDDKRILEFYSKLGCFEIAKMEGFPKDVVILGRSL

For `Cc1nnc(C2CCN(C(C)c3nc4c(cc3F)CCO4)CC2)o1` (single isomer, unassigned; (+)) [Example 4, (+)-5-fluoro-6-[1-[4-(5-methyl-1,3,4-oxadiazol-2-yl)-1-piperidyl]ethyl]-2,3-dihydrofuro[2,3-b]pyridine], the IC50 was found to be 2660 ± 607 nM.
For `Cc1nnc(C2CCN(C(C)c3ccc4c(n3)OCC4)CC2)o1` (single isomer, unassigned; (+)) [Example 3], half-maximal inhibition (IC50) was put at 611 nM.
With `Cc1nnc(C2CCN(C(C)c3ccc4c(n3)OCC4)CC2)o1` (single isomer, unassigned; (-)) [Example 1, (−)-6-[1-[4-(5-methyl-1,3,4-oxadiazol-2-yl)-1-piperidyl]ethyl]-2,3-dihydrofuro[2,3-b]pyridine] the figure was 1.24 ± 0.66 nM; with `Cc1nnc(C2CCN(C(C)c3nc4c(cc3F)CCO4)CC2)o1` (single isomer, unassigned; (-)) [Example 2, (−)-5-fluoro-6-[1-[4-(5-methyl-1,3,4-oxadiazol-2-yl)-1-piperidyl]ethyl]-2,3-dihydrofuro[2,3-b]pyridine], 1.13 ± 1.02 nM.
